System: 997726-040-R-J2-PDC tumor spheroids, viability
Test: Anticancer human tumor 997726-040-R-J2-PDC patient-derived squamous cell lung carcinoma cell line growth inhibition [PI3K]
Details: spheroids with HUVEC and MSC; for IC50: curve of first compound; for viability, T/C: stronger effect = lower value; active = viability on the fitted dose curve at most 10% of control; inactive = the rest
Summary of the method: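 Multi-cell spheroids combine tumor cells with HUVEC and human MSCs, treated with targeted agents alone or with inavolisib, alpelisib, duvelisib or copanlisib. Concentrations fall in half-log steps from at or near clinical Cmax, or from 10 microM where Cmax is unknown; viability read-out.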

[1] = second compound 0.0316 µM, first compound 0.0316 µM
[2] = second compound 0.0316 µM, first compound 0.1 µM
[3] = second compound 0.1 µM, first compound 0.0316 µM
[4] = second compound 0.1 µM, first compound 0.1 µM
[5] = second compound 0.316 µM, first compound 0.0316 µM
[6] = second compound 0.316 µM, first compound 0.1 µM
[7] = second compound 1 µM, first compound 0.0316 µM
[8] = second compound 1 µM, first compound 0.1 µM
[9] = second compound 3.16 µM, first compound 0.0316 µM
[10] = second compound 3.16 µM, first compound 0.1 µM
[11] = second compound 10 µM, first compound 0.0316 µM
[12] = second compound 10 µM, first compound 0.1 µM
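Note: spheroids exposed to compounds for seven days before readout.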

CC(=O)c1c(C)c2cnc(Nc3ccc(N4CCNCC4)cn3)nc2n(C2CCCC2)c1=O + CC(Nc1ncnc2nc[nH]c12)c1cc2cccc(Cl)c2c(=O)n1-c1ccccc1
10.6 nM: IC50 (second compound 10 µM)
inactive: viability, T/C (second compound 0.0316 µM, first compound 0.000316 µM) 94% | viability, T/C (second compound 0.0316 µM, first compound 0.001 µM) 109% | viability, T/C (second compound 0.0316 µM, first compound 0.00316 µM) 93.7% | viability, T/C (second compound 0.0316 µM, first compound 0.01 µM) 87.7% | viability, T/C [1] 86.1% | viability, T/C [2] 61.2% | viability, T/C (second compound 0.1 µM, first compound 0.000316 µM) 102% | viability, T/C (second compound 0.1 µM, first compound 0.001 µM) 94.8% | viability, T/C (second compound 0.1 µM, first compound 0.00316 µM) 91.3% | viability, T/C (second compound 0.1 µM, first compound 0.01 µM) 96.6% | viability, T/C [3] 78.3% | viability, T/C [4] 65.5% | viability, T/C (second compound 0.316 µM, first compound 0.000316 µM) 99.8% | viability, T/C (second compound 0.316 µM, first compound 0.001 µM) 96.7% | viability, T/C (second compound 0.316 µM, first compound 0.00316 µM) 91.3% | viability, T/C (second compound 0.316 µM, first compound 0.01 µM) 83.5% | viability, T/C [5] 81.6% | viability, T/C [6] 57.3% | viability, T/C (second compound 1 µM, first compound 0.000316 µM) 97.1% | viability, T/C (second compound 1 µM, first compound 0.001 µM) 85.7% | viability, T/C (second compound 1 µM, first compound 0.00316 µM) 86.9% | viability, T/C (second compound 1 µM, first compound 0.01 µM) 74.1% | viability, T/C [7] 75.8% | viability, T/C [8] 53.3% | viability, T/C (second compound 3.16 µM, first compound 0.000316 µM) 72.9% | viability, T/C (second compound 3.16 µM, first compound 0.001 µM) 71.7% | viability, T/C (second compound 3.16 µM, first compound 0.00316 µM) 77.3% | viability, T/C (second compound 3.16 µM, first compound 0.01 µM) 70.1% | viability, T/C [9] 58.4% | viability, T/C [10] 50.4% | viability, T/C (second compound 10 µM, first compound 0.000316 µM) 53.9% | viability, T/C (second compound 10 µM, first compound 0.001 µM) 51.6% | viability, T/C (second compound 10 µM, first compound 0.00316 µM) 56.9% | viability, T/C (second compound 10 µM, first compound 0.01 µM) 50.4% | viability, T/C [11] 41.8% | viability, T/C [12] 43.4%
> 100 nM: IC50 (second compound 0.0316 µM) | IC50 (second compound 0.1 µM) | IC50 (second compound 0.316 µM) | IC50 (second compound 1 µM) | IC50 (second compound 3.16 µM)

CNC(=O)c1ccc(N2C(=S)N(c3ccc(C#N)c(C(F)(F)F)c3)C(=O)C2(C)C)cc1F + CC(Nc1ncnc2nc[nH]c12)c1cc2cccc(Cl)c2c(=O)n1-c1ccccc1
> 10000 nM: IC50 (second compound 0.0316 µM) | IC50 (second compound 0.1 µM) | IC50 (second compound 0.316 µM) | IC50 (second compound 1 µM) | IC50 (second compound 3.16 µM) | IC50 (second compound 10 µM)
inactive: viability, T/C [1] 88.7% | viability, T/C [2] 97.8% | viability, T/C (second compound 0.0316 µM, first compound 0.316 µM) 115% | viability, T/C (second compound 0.0316 µM, first compound 1 µM) 90.4% | viability, T/C (second compound 0.0316 µM, first compound 3.16 µM) 102% | viability, T/C (second compound 0.0316 µM, first compound 10 µM) 86.7% | viability, T/C [3] 98% | viability, T/C [4] 93.6% | viability, T/C (second compound 0.1 µM, first compound 0.316 µM) 97% | viability, T/C (second compound 0.1 µM, first compound 1 µM) 107% | viability, T/C (second compound 0.1 µM, first compound 3.16 µM) 104% | viability, T/C (second compound 0.1 µM, first compound 10 µM) 92.4% | viability, T/C [5] 104% | viability, T/C [6] 109% | viability, T/C (second compound 0.316 µM, first compound 0.316 µM) 101% | viability, T/C (second compound 0.316 µM, first compound 1 µM) 99.2% | viability, T/C (second compound 0.316 µM, first compound 3.16 µM) 104% | viability, T/C (second compound 0.316 µM, first compound 10 µM) 90.2% | viability, T/C [7] 96.7% | viability, T/C [8] 86.6% | viability, T/C (second compound 1 µM, first compound 0.316 µM) 78.7% | viability, T/C (second compound 1 µM, first compound 1 µM) 85% | viability, T/C (second compound 1 µM, first compound 3.16 µM) 89% | viability, T/C (second compound 1 µM, first compound 10 µM) 86.9% | viability, T/C [9] 71% | viability, T/C [10] 73.8% | viability, T/C (second compound 3.16 µM, first compound 0.316 µM) 72.6% | viability, T/C (second compound 3.16 µM, first compound 1 µM) 80% | viability, T/C (second compound 3.16 µM, first compound 3.16 µM) 80.3% | viability, T/C (second compound 3.16 µM, first compound 10 µM) 66.2% | viability, T/C [11] 59.5% | viability, T/C [12] 53.9% | viability, T/C (second compound 10 µM, first compound 0.316 µM) 50.6% | viability, T/C (second compound 10 µM, first compound 1 µM) 48% | viability, T/C (second compound 10 µM, first compound 3.16 µM) 54.4% | viability, T/C (second compound 10 µM, first compound 10 µM) 50%

From PubChem BioAssay AID1963964 (Molecular Pharmacology Branch, DTP, NCI, 2024)
